# Data from patent US7592326B2, “Method for stimulating the immune, inflammatory or neuroprotective response” (priority 2004, dated 2009).
# What was measured:
# human DCs = assay: Cytokine, chemokine and chemokine receptor expression in c-di-GMP-induced DC maturation (QPCR); type: cell-based
# Experimental: Buffy coats were obtained from healthy human volunteers and fractionated over Histopaque-1077. The peripheral blood mononuclear cells (PBMC) layer was recovered and erythrocyte-depleted by incubation in red blood cell lysis buffer for 5 minutes at room temperature. PBMCs were cultured in complete medium (RPMI 1640, 1% L-glutamine, 1% penicillin/streptomycin, and 10% low endotoxin FCS) for 2 hours in T75 flasks (Corning). Following incubation, nonadherent cells were removed by three washes with 1× PBS (Invitrogen, Carlsbad, Calif.). The remaining adherent cells were then cultured in complete medium supplemented with GM-CSF and IL-4 (50 ng/mL each). Human and murine IL-4 and GM-CSF were purchased from Peprotech (Rocky Hill, N.J.). On day 2 and day 4, the DC cultures received an additional dose of GM-CSF and IL-4 (50 ng/mL each). On day 5, non-adherent DC were harvested by gentle pipetting, counted, and plated in fresh medium containing GM-CSF and IL-4 (50 ng/mL each). On Day 6, some DC were matured by addition of 100 ng/ml LPS or 10-400 μM c-di-GMP for 1-24 hours.
# Surface expression of various markers was assessed using CellQuest analysis software on a FACScalibur (Becton-Dickinson) flow cytometer. Surface expression was determined using the following FITC- and PE-conjugated antibodies: CD86-FITC (Research Diagnostics), CCR7-PE (R&D Systems), CD80-FITC, CD83-FITC, HLA-DR-FITC (BD Pharmingen). The isotype control antibodies were used accordingly in all experiments and were purchased from Pharmingen. Human DC were incubated in 1% human AB serum/PBS and were incubated with rat anti-CD16/CD32 (BD Phamingen) to block non-specific binding. Total RNA was extracted using the RNeasy kit according to the manufacturer's protocol (Qiagen). Briefly, after DNase I (Invitrogen) treatment, 1 μg of total RNA from each sample was used as template for the reverse transcription reaction. 50 ul of cDNA was synthesized using Oligo(dT)15, random hexamers, and multiscribe reverse transcriptase (Applied Biosystems). All samples were reverse transcribed under the same conditions (25° C. for 10 minutes, 48° C. for 30 minutes) and from the same reverse transcription master mix in order to minimize differences in reverse transcription efficiency. All oligonucleotide primers for QPCR were designed using Primer Express software 1.0 (PE Biosystems) and synthesized by Invitrogen. The 25 ul QPCR reaction contains 2 ul of cDNA, 12.5 ul of 2× SYBR Green master mix (Stratagene), and […] of sense and anti-sense primer. The reaction conditions were as follows: 50° C. for 2 minutes, 95° C. for 10 minutes then 40 cycles of 95° C. for 15 seconds and 60° C. for 1 minute. Emitted fluorescence for each reaction was measured during the annealing/extension phase, and amplification plots were analyzed using the MX4000 software version 3.0 (Stratagene). Quantity values (i.e., copies) for gene expression were generated by comparison of the fluorescence generated by each sample with standard curves of known quantities. Next, the calculated number of copies was divided by the number of copies of the housekeeping gene GAPDH.
# P. carinii = type: in vivo, Pneumocystis carinii; settings: C57BL/6 mice pretreated 48- and 24 h prior to infection
# DCs = assay: DC apoptosis (FITC-Annexin V/PI double staining); type: cell-based, human; settings: 24 h
# Experimental: FITC-Annexin V/Propidium Iodure (PI) double staining was used to detect apoptosis of DCs treated with c-di-GMP. Immature and mature DCs, untreated or treated with c-di-GMP for 24 h, were harvested and washed twice with ice cold PBS; specific binding of FITC-annexin V and staining with PI was performed with an apoptosis detection kit accordingly to the manufacturer's instructions. The cells were then analyzed by flow cytometry.
# Lethality in CD1 mice = settings: 50 μl of 200 μM, after 24 h
smiles,measurement,setting,value
"Nc1nc(=O)c2ncn([C@@H]3OC4COP(=O)(O)O[C@H]5[C@@H](O)[C@H](n6cnc7c(=O)nc(N)[nH]c76)O[C@@H]5COP(=O)(O)OC4C3O)c2[nH]1 (stereo partly shown) [c-di-GMP, Bis(3′→5′)-cyclic diguanylic acid]","mRNA expression of chemokines IL-8/CXCL8, MIG/CXCL9, IP-10/CXCL10, I-TAC/CXCL11, MCP-1/CCL2, MIP-1a/CCL3, MIP-1b/CCL4, RANTES/CCL5","human DCs; 200 uM, 1-24 hours",increased
same,"mRNA expression of IFN-a, IL-1b, TNF, IFN-g and IL-12 p40","human DCs; 200 uM, FIG. 11A",stimulated
same,IL-8 and IP-10 protein production (ELISA of supernatants),"human DCs; 24 hours, data not shown",consistent with the mRNA results
same,expression of CXCR4 and CCR7,human DCs; FIG. 11C,upregulated
same,expression of chemokine receptors CCR1 and CCR5,human DCs; FIG. 11C,downregulated
same,"induction of Th2 cytokines (IL-4, IL-5, IL-10, IL-13)",human DCs; human DCs,No evidence for the induction
same,time of TNF-a peak following treatment,human DCs; returns to basal level after 24 hours,3 h
same,survival,P. carinii,increased survival
same,Early apoptosis (% of annexin V^+/PI^− cells),DCs; cdiGMP 5 μM,23%
same,Late apoptosis (% of annexin V^+/PI^+ cells),DCs; cdiGMP 5 μM,36%
same,Early apoptosis (% of annexin V^+/PI^− cells),DCs; cdiGMP 50 μM,31%
same,Late apoptosis (% of annexin V^+/PI^+ cells),DCs; cdiGMP 50 μM,40%
same,Early apoptosis (% of annexin V^+/PI^− cells),DCs; cdiGMP 100 μM,18%
same,Late apoptosis (% of annexin V^+/PI^+ cells),DCs; cdiGMP 100 μM,42%
same,effect on DC apoptosis,DCs; immature and mature DCs,did not appear to have any effect
same,lethality in CD1 mice,Lethality in CD1 mice,non-lethal
